Holding throughout (assay): growth of human tumour cells (NCI), 48 h
For experiment [1], the system named is SK-OV-3 ovarian.
Experiment [2] has as its system HT29 colon.
Experiment [3] deals with ACHN renal.
Experiment [4] deals with HOP-92 NSCLC.
The subject of experiment [5] is UO-31 renal.
Experiment [6] relates to HCT-116 colon.
Experiment [7] has as its system NCI-H460 lung.
The subject of experiment [8] is OVCAR-4 ovarian.
Experiment [9] has as its system NCI-H23 lung.
For experiment [10], the system named is HCC-2998 colon.

The structures appear in SMILES notation.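 Results reflect a 48-hour exposure of cells in 96-well plates to compound at five concentrations. Here, GI50 denotes the concentration required for 50% inhibition of growth. Definition used: TGI = concentration required for complete inhibition of growth.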

As to `Nc1ccccc1C(=O)CC1OC(=O)c2ccccc21` (centres undefined), the TGI in experiment [1], in experiment [2], in experiment [3], in [4], in experiment [5] and in experiment [6] was greater than 100 µM in each case. For the same molecule, the TGI in experiment [7] and in experiment [8] was greater than 100 µM in each case.

Take `COc1ccc2c(C)cc(N/N=C/c3ccc(OC)c4ccccc34)nc2c1`: the TGI in [1] came out at 33.8 µM; in [2], 32.7 µM; in experiment [3], 15.8 µM; in [4], 25.4 µM; in [5] it was 25.6 µM; in experiment [6], 18.1 µM. For the same molecule, the TGI in [9] was determined as 32.8 µM; in [7], 41.1 µM; in [8], 45.1 µM.

With `Clc1nc(Cl)c2ncn(Cc3cccc(Cn4cnc5c(Cl)nc(Cl)nc54)c3)c2n1`, the GI50 in experiment [2] is 4.42 µM; in experiment [3] it was 2.53 µM; in [10] it was 2.38 µM; in experiment [4] it was 6.13 µM; in [5], 1.92 µM; in experiment [6], 2.45 µM. For the same molecule, the GI50 was 8.5 µM in experiment [9], 3.7 µM in experiment [7] and 3.69 µM in [8]. For the same molecule, the TGI in experiment [2] was greater than 100 µM; in experiment [3], 6.21 µM; in experiment [10] it was 7.11 µM; in experiment [4] it was 22.4 µM; in experiment [5], 3.55 µM; in [6] it was 6.28 µM. In addition, the TGI turned out to be 22.1 µM in experiment [9], 13.6 µM in experiment [7] and 13.2 µM in experiment [8].

`FC(F)(F)c1nc2nc(Cl)c(Cl)nc2n1CCCN1CCOCC1`: the TGI in [1], in [2], in experiment [3], in experiment [4], in [6] and in experiment [9] was greater than 100 µM throughout. Further, the TGI in experiment [7] and in experiment [8] was greater than 100 µM each time.

As to `CC(C)(C)C(=O)c1c(C(F)(F)F)n([O-])c2ccccc2[n+]1=O`, the GI50 was 1.67 µM in experiment [1]; 0.368 µM in experiment [2]; 0.272 µM in [3]; 0.573 µM in experiment [4]; 0.342 µM in [5]; 0.619 µM in [6]. Further, the GI50 in experiment [9] was 1.17 µM; in experiment [7], 0.439 µM; in experiment [8], 0.6 µM. The TGI in experiment [1] turned out to be 3.07 µM; in [3], 0.743 µM; in experiment [4] it was 1.93 µM; in [5] it was 0.729 µM; in experiment [6] it was 1.59 µM; in experiment [9] it was 2.39 µM. Besides, the values for the TGI in experiment [7] and in [8] were 1.52 µM and 2.43 µM, respectively.

`COCCCNC(=O)C1C(=O)N(CCCOC)C(=O)/C1=N\N` (centres undefined): the TGI in experiment [2], in experiment [3], in experiment [10], in experiment [4], in [5] and in experiment [6] was greater than 100 µM each time. Besides, the TGI in experiment [9], in [7] and in experiment [8] was greater than 100 µM throughout.

In the case of `Cc1ccc(S(=O)(=O)NC(=O)C2C(=O)CC3(CCCCC3)CC2=O)cc1`, the TGI was greater than 100 µM in experiment [1]; 92.5 µM in experiment [2]; 62.1 µM in [3]; 45.6 µM in experiment [4]; 60.4 µM in [5]; 74.4 µM in experiment [6]. Besides, the figures for the TGI in [9], in experiment [7] and in experiment [8] were greater than 100 µM, 74.9 µM and greater than 100 µM, respectively.

As to `C=C1C(=O)O[C@H]2C[C@@H]1CC/C(C)=C/CC/C(C)=C/CC[C@H]2C`, the GI50 in experiment [1] is 19.2 µM; in experiment [2] it was 28.3 µM; in [3], 10.6 µM; in experiment [10] it was 14.5 µM; in [5] it was 1.12 µM; in experiment [6] it was 7.82 µM. Also, the GI50 in experiment [9] was 20.6 µM; in experiment [7] it was 23.2 µM. Further, the TGI in [1] is 38.9 µM; in experiment [2], greater than 100 µM; in experiment [3] it was 24.6 µM; in [10], 28.9 µM; in experiment [5], 4.02 µM; in experiment [6], 21.3 µM. Further, the TGI in experiment [9] is 41 µM; in experiment [7] it was greater than 59 µM.

Turning to `CCOc1ccc2nc(SCc3nc4n(n3)S(=O)(=O)c3ccccc3N4C)sc2c1`, the GI50 in experiment [1] was greater than 100 µM; in experiment [2], greater than 100 µM; in experiment [3], greater than 100 µM; in experiment [4] it was 20.7 µM; in experiment [5], greater than 100 µM; in [6], 55.8 µM. Besides, the GI50 was 57.7 µM in experiment [9], greater than 100 µM in [7] and greater than 100 µM in [8]. The TGI in experiment [1] was greater than 100 µM; in experiment [2] it was greater than 100 µM; in experiment [3] it was greater than 100 µM; in [4], 58.5 µM; in experiment [5], greater than 100 µM; in experiment [6] it was greater than 100 µM. For the same molecule, the TGI in [9], in experiment [7] and in [8] was greater than 100 µM in each case.

`CCOC(=O)N1CCN(c2nc(Nc3cc(C)[nH]n3)c3ccccc3n2)CC1`: the GI50 is 2.62 µM in [1]; 2.49 µM in experiment [2]; 0.707 µM in [3]; 11.7 µM in [10]; 1.92 µM in experiment [4]; 0.854 µM in experiment [5]. For the same molecule, the GI50 in [6] is 2.13 µM; in experiment [7], 4.42 µM; in [8] it was 4.04 µM. For the same molecule, the TGI in experiment [1] was 34.3 µM; in [2], 21.2 µM; in [3], greater than 100 µM; in experiment [10], 48.7 µM; in experiment [4] it was 11.9 µM; in experiment [5] it was 24.6 µM. Further, the figures for the TGI in experiment [6], in experiment [7] and in [8] were 21.3 µM, 26.4 µM and greater than 100 µM, respectively.

`Cc1cc(=O)oc2cc(OC(=O)N(C)C)c(Cl)cc12`: the TGI in experiment [2], in experiment [3], in experiment [10], in [4], in [5] and in [6] was greater than 100 µM in each case. In addition, the TGI in [9], in experiment [7] and in experiment [8] was greater than 100 µM throughout.

These data come from PubChem BioAssay (NCI).
